Columns and labels:
WT LdtR [1] = assay type: biochemical, Liberibacter asiaticus
WT LdtR [2] = assay type: binding, Liberibacter asiaticus
[3] = tested on: WT LdtR, lacZ reporter in B. subtilis strain BS6; assay type: cell-based, Bacillus subtilis
B. subtilis cells = assay type: cell-based, Bacillus subtilis
[4] = tested on: S. meliloti strain SMP5 (1021-pBBR1MCS-5); assay type: cell-based, Sinorhizobium meliloti
[5] = tested on: S. meliloti strain SMP2A (ΔldtRSMc-pBBR1MCS-5); assay type: cell-based
[6] = tested on: S. meliloti strain SMP2B (ΔldtRSMc-pBBR1MCS-5::LdtR); assay type: cell-based
LdtR Wild type = LdtR Wild type (Candidatus Liberibacter asiaticus, UniProt A0ABN4AZS1)
LdtR = conditions: cited from earlier work
ST1710 = conditions: read-out: affinity value; cited from earlier work
[7] = target: LdtR wild type (Liberibacter asiaticus); assay: SEC
[8] = tested on: LdtR WT (Liberibacter asiaticus); assay: EMSA

Compound: CCc1oc2ccccc2c1C(=O)c1cc(Br)c(O)c(Br)c1 [benzbromarone]
- excess of benzbromarone at which the LdtR:DNA complex is disrupted (WT LdtR [1]): 10 fold excess
- change in melting temperature (ΔTm) (WT LdtR [2]): -1.8 ± 0.2 °C
- decrease of melting temperature (WT LdtR [2]): 3.6 ± 0.2 °C
- reduction of β-galactosidase activity [3]: 40%
- concentrations found to be toxic to the cells (B. subtilis cells): higher than 5 μM
- Growth rate constant, k [4]: 0.044 ± 0.003 generations/h
- Mean generation time [4]: 22.7 h
- increase of the duplication time on addition of benzbromarone [4]: 39%
- Growth rate constant, k [5]: 0.042 ± 0.002 generations/h
- Mean generation time [5]: 23.8 h
- Growth rate constant, k [6]: 0.045 ± 0.002 generations/h
- Mean generation time [6]: 22.2 h
- increase of the duplication time on addition of benzbromarone [6]: 25%
- N (LdtR Wild type): 0.34 ± 0.08
- ΔG (LdtR Wild type): -7.5 kcal/mol
- ΔH (LdtR Wild type): -3.0 ± 1.0 kcal/mol
- ΔS (LdtR Wild type): 14.9 cal/mol/deg
- effect on LdtR binding to DNA (LdtR): inhibitors of LdtR binding to DNA

Compound: CC[n+]1c(-c2ccccc2)c2cc(N)ccc2c2ccc(N)cc21 [ethidium]
- Kd (ST1710): 13.7 µM

Compound: CC[C@H](c1ccc(O)cc1)[C@@H](CC)c1ccc(O)cc1 [hexestrol]
- effect on LdtR binding to DNA (LdtR): inhibitors of LdtR binding to DNA

Compound: O=C(CCc1ccc(O)cc1)c1c(O)cc(O)cc1O [phloretin]
- effect on LdtR binding to DNA (LdtR): inhibitors of LdtR binding to DNA

Compound: LdtR wild type (natural protein)
- stoichiometry N [7]: 2

Compound: PldtP
- K half [8]: 200 nM
